pKi: −log10 of the molar value.
Target: recombinant human NK3 receptor (Homo sapiens (Human), UniProt P29371)
Assay: biochemical
Assay type: binding
Settings: [3H]SR142801, membranes of HEK293 cells transiently expressing recombinant human NK3 receptor; read-out: Data Ki (hNK-3 receptor affinity)

Sequence of recombinant human NK3 receptor (P29371 whole entry): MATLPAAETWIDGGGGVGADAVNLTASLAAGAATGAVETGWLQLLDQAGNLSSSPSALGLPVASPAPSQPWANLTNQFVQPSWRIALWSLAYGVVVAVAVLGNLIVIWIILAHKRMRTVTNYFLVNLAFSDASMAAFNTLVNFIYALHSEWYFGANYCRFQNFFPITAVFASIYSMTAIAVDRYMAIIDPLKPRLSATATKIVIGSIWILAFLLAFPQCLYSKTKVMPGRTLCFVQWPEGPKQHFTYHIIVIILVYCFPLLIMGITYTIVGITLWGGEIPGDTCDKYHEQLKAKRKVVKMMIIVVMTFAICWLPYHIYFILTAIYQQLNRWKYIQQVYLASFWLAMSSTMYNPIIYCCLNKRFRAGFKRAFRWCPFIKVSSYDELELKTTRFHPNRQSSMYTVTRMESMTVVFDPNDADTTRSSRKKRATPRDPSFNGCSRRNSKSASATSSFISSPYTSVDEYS

Compound	pKi
CCN(C(=O)Oc1ccc(F)cc1)[C@@H]1CN(C(=O)C2CCN(C(=O)C3CC(OC)C3)CC2)C[C@H]1c1ccc(Cl)cc1 (stereo partly drawn) [Example 91, {(3S,4R)-4-(4-Chloro-phenyl)-1-[1-(3-methoxy-cyclobutanecarbonyl)-piperidine-4-carbonyl]-pyrrolidin-3-yl}-ethyl-carbamic acid 4-fluoro-phenyl ester]	8.19
CCN(C(=O)Oc1ccc(F)cc1)[C@@H]1CN(C(=O)C2CCN(C(C)=O)CC2)C[C@H]1c1ccc(Cl)cc1 [Example 82, [(3S,4R)-1-(1-Acetyl-piperidine-4-carbonyl)-4-(4-chloro-phenyl)-pyrrolidin-3-yl]-ethyl-carbamic acid 4-fluoro-phenyl ester]	8.09
N#Cc1ccc(N2CCC(C(=O)N3C[C@H](c4ccc(Cl)cc4)[C@@H](N(C(=O)Oc4ccc(F)cc4)C4CC4)C3)CC2)nc1 [Example 34, [(3R,4S)-4-(4-Chloro-phenyl)-1-(5′-cyano-3,4,5,6-tetrahydro-2H-[1,2′]bipyridinyl-4-carbonyl)-pyrrolidin-3-yl]-cyclopropyl-carbamic acid 4-fluoro-phenyl ester]	6.94
CCN(C(=O)Oc1ccc(F)cc1)[C@@H]1CN(C(=O)C2CCN(c3ncc(C#N)cn3)CC2)C[C@H]1c1ccc(Cl)cc1 [Example 13, {(3S,4R)-4-(4-Chloro-phenyl)-1-[1-(5-cyano-pyrimidin-2-yl)-piperidine-4-carbonyl]-pyrrolidin-3-yl}-ethyl-carbamic acid 4-fluoro-phenyl ester]	8.10
CCN(C(=O)Oc1ccc(F)cc1)[C@@H]1CN(C(=O)C2CCN(C(=O)C3CC(F)(F)C3)CC2)C[C@H]1c1ccc(Cl)c(F)c1 [Example 66, {(3S,4R)-4-(4-Chloro-3-fluoro-phenyl)-1-[1-(3,3-difluoro-cyclobutanecarbonyl)-piperidine-4-carbonyl]-pyrrolidin-3-yl}-ethyl-carbamic acid 4-fluoro-phenyl ester]	9.00
CCN(C(=O)Oc1ccc(F)cc1)[C@@H]1CN(C(=O)C2CCN(c3ccc(C(C)=O)cn3)CC2)C[C@H]1c1ccc(Cl)c(Cl)c1 [Example 116, [(3S,4R)-1-(5′-Acetyl-3,4,5,6-tetrahydro-2H-[1,2′]bipyridinyl-4-carbonyl)-4-(3,4-dichloro-phenyl)-pyrrolidin-3-yl]-ethyl-carbamic acid 4-fluoro-phenyl ester]	9.30
CCN(C(=O)Oc1ccc(F)cc1)[C@@H]1CN(C(=O)C2CCN(C(=O)C3CCOCC3)CC2)C[C@H]1c1ccc(Cl)cc1 [Example 97, {(3S,4R)-4-(4-Chloro-phenyl)-1-[1-(tetrahydro-pyran-4-carbonyl)-piperidine-4-carbonyl]-pyrrolidin-3-yl}-ethyl-carbamic acid 4-fluoro-phenyl ester]	8.36
CC(C)N(C(=O)Oc1ccc(F)cc1)[C@@H]1CN(C(=O)C2CCN(C(=O)C3(C)CC3)CC2)C[C@H]1c1ccc(Cl)c(Cl)c1 (racemic) [Example 2, rac-{(3S,4R)-4-(3,4-Dichloro-phenyl)-1-[1-(1-methyl-cyclopropanecarbonyl)-piperidine-4-carbonyl]-pyrrolidin-3-yl}-isopropyl-carbamic acid 4-fluoro-phenyl ester]	7.34
CCN(C(=O)Oc1ccc(F)cc1)[C@@H]1CN(C(=O)C2CCN(c3ccc(C(C)=O)cn3)CC2)C[C@H]1c1ccc(Cl)c(F)c1 [Example 59, [(3S,4R)-1-(5′-Acetyl-3,4,5,6-tetrahydro-2H-[1,2′]bipyridinyl-4-carbonyl)-4-(4-chloro-3-fluoro-phenyl)-pyrrolidin-3-yl]-ethyl-carbamic acid 4-fluoro-phenyl ester]	9.30
CCN(C(=O)Oc1ccc(F)cc1)[C@@H]1CN(C(=O)C2CCN(C(=O)[C@@H]3CC(=O)N3)CC2)C[C@H]1c1ccc(Cl)cc1 [Example 121, {(3S,4R)-4-(4-Chloro-phenyl)-1-[1-((S)-4-oxo-azetidine-2-carbonyl)-piperidine-4-carbonyl]-pyrrolidin-3-yl}-ethyl-carbamic acid 4-fluoro-phenyl ester]	7.77
CC(C)N(C(=O)Oc1ccc(F)cc1)[C@@H]1CN(C(=O)C2CCN(c3ccc(C(F)(F)F)cn3)CC2)C[C@H]1c1ccc(Cl)cc1 [Example 25, [(3S,4R)-4-(4-Chloro-phenyl)-1-(5′-trifluoromethyl-3,4,5,6-tetrahydro-2H-[1,2′]bipyridinyl-4-carbonyl)-pyrrolidin-3-yl]-isopropyl-carbamic acid 4-fluoro-phenyl ester]	6.95
CC(C)CN(C(=O)Oc1ccc(F)cc1)[C@@H]1CN(C(=O)C2CCN(C(=O)C3(C)CC3)CC2)C[C@H]1c1ccc(Cl)c(Cl)c1 (racemic) [Example 3, rac-{(3S,4R)-4-(3,4-Dichloro-phenyl)-1-[1-(1-methyl-cyclopropanecarbonyl)-piperidine-4-carbonyl]-pyrrolidin-3-yl}-isobutyl-carbamic acid 4-fluoro-phenyl ester]	6.56
CCN(C(=O)Oc1ccc(F)cc1)[C@@H]1CN(C(=O)C2CCN(c3ccc(S(C)(=O)=O)cn3)CC2)C[C@H]1c1ccc(F)cc1 [Example 37, Ethyl-[(3S,4R)-4-(4-fluoro-phenyl)-1-(5′-methanesulfonyl-3,4,5,6-tetrahydro-2H-[1,2′]bipyridinyl-4-carbonyl)-pyrrolidin-3-yl]-carbamic acid 4-fluoro-phenyl ester]	8.10
CCN(C(=O)Oc1ccc(F)cc1)[C@H]1CN(C(=O)C2CCN(c3ccc(S(C)(=O)=O)cn3)CC2)C[C@@H]1c1ccc(Cl)cc1 [Example 10, [(3R,4S)-4-(4-Chloro-phenyl)-1-(5′-methanesulfonyl-3,4,5,6-tetrahydro-2H-[1,2′]bipyridinyl-4-carbonyl)-pyrrolidin-3-yl]-ethyl-carbamic acid 4-fluoro-phenyl ester]	7.19
CCN(C(=O)Oc1ccc(F)cc1)[C@H]1CN(C(=O)C2CCN(c3ncc(C#N)cn3)CC2)C[C@@H]1c1ccc(Cl)cc1 [Example 7, {(3R,4S)-4-(4-Chloro-phenyl)-1-[1-(5-cyano-pyrimidin-2-yl)-piperidine-4-carbonyl]-pyrrolidin-3-yl}-ethyl-carbamic acid 4-fluoro-phenyl ester]	7.05
CCN(C(=O)Oc1ccc(F)cc1)[C@@H]1CN(C(=O)C2CCN(c3ccc(Cl)cn3)CC2)C[C@H]1c1ccc(Cl)cc1 [Example 110, [(3S,4R)-4-(4-Chloro-phenyl)-1-(5′-chloro-3,4,5,6-tetrahydro-2H-[1,2′]bipyridinyl-4-carbonyl)-pyrrolidin-3-yl]-ethyl-carbamic acid 4-fluoro-phenyl ester]	8.32
CCN(C(=O)Oc1ccc(F)cc1)[C@@H]1CN(C(=O)C2CCN(c3cc(C#N)ccn3)CC2)C[C@H]1c1ccc(F)c(F)c1 [Example 53, [(3S,4R)-1-(4′-Cyano-3,4,5,6-tetrahydro-2H-[1,2′]bipyridinyl-4-carbonyl)-4-(3,4-difluoro-phenyl)-pyrrolidin-3-yl]-ethyl-carbamic acid 4-fluoro-phenyl ester]	7.80
CCN(C(=O)Oc1ccc(F)cc1)[C@@H]1CN(C(=O)C2CCN(C(=O)C3(C#N)CC3)CC2)C[C@H]1c1ccc(Cl)cc1 [Example 94, {(3S,4R)-4-(4-Chloro-phenyl)-1-[1-(1-cyano-cyclopropanecarbonyl)-piperidine-4-carbonyl]-pyrrolidin-3-yl}-ethyl-carbamic acid 4-fluoro-phenyl ester]	8.11
CCN(C(=O)Oc1ccc(F)cc1)[C@@H]1CN(C(=O)C2CCN(C(=O)c3ccc(C#N)nc3)CC2)C[C@H]1c1ccc(Cl)c(F)c1 [Example 79, {(3S,4R)-4-(4-Chloro-3-fluoro-phenyl)-1-[1-(6-cyano-pyridine-3-carbonyl)-piperidine-4-carbonyl]-pyrrolidin-3-yl}-ethyl-carbamic acid 4-fluoro-phenyl ester]	8.10

Same assay, conditions: read-out: Data Ki (hNK-3 receptor affinity)

Compound	pKi
CCN(C(=O)Oc1ccc(F)cc1)[C@H]1CN(C(=O)C2CCN(c3cc(C#N)ccn3)CC2)C[C@@H]1c1ccc(Cl)cc1 [Example 9, [(3R,4S)-4-(4-Chloro-phenyl)-1-(4′-cyano-3,4,5,6-tetrahydro-2H-[1,2′]bipyridinyl-4-carbonyl)-pyrrolidin-3-yl]-ethyl-carbamic acid 4-fluoro-phenyl ester]	6.86
CCN(C(=O)Oc1ccc(F)cc1)[C@@H]1CN(C(=O)C2CCN(C(=O)C3CC(F)C3)CC2)C[C@H]1c1ccc(Cl)cc1 (stereo partly drawn) [Example 89, {(3S,4R)-4-(4-Chloro-phenyl)-1-[1-(3-fluoro-cyclobutanecarbonyl)-piperidine-4-carbonyl]-pyrrolidin-3-yl}-ethyl-carbamic acid 4-fluoro-phenyl ester]	8.48
CCN(C(=O)Oc1ccc(F)cc1)[C@@H]1CN(C(=O)C2CCN(c3ccc(C(C)=O)cn3)CC2)C[C@H]1c1ccc(F)cc1 [Example 38, [(3S,4R)-1-(5′-Acetyl-3,4,5,6-tetrahydro-2H-[1,2′]bipyridinyl-4-carbonyl)-4-(4-fluoro-phenyl)-pyrrolidin-3-yl]-ethyl-carbamic acid 4-fluoro-phenyl ester]	8.15
CCN(C(=O)Oc1ccc(F)cc1)[C@@H]1CN(C(=O)C2CCN(c3ccc(Cl)cn3)CC2)C[C@H]1c1ccc(F)cc1 [Example 36, [(3S,4R)-1-(5′-Chloro-3,4,5,6-tetrahydro-2H-[1,2′]bipyridinyl-4-carbonyl)-4-(4-fluoro-phenyl)-pyrrolidin-3-yl]-ethyl-carbamic acid 4-fluoro-phenyl ester]	8.00
CCN(C(=O)Oc1ccc(F)cc1)[C@@H]1CN(C(=O)C2CCN(C(=O)C3CCOC(C)(C)C3)CC2)C[C@H]1c1ccc(Cl)c(F)c1 (stereo partly drawn) [Example 73, {(3S,4R)-4-(4-Chloro-3-fluoro-phenyl)-1-[1-(2,2-dimethyl-tetrahydro-pyran-4-carbonyl)-piperidine-4-carbonyl]-pyrrolidin-3-yl}-ethyl-carbamic acid 4-fluoro-phenyl ester]	8.52
CCN(C(=O)Oc1ccc(F)cc1)[C@@H]1CN(C(=O)C2CCN(c3ccc(C(F)(F)F)cn3)CC2)C[C@H]1c1ccc(Cl)cc1 [Example 20, [(3S,4R)-4-(4-Chloro-phenyl)-1-(5′-trifluoromethyl-3,4,5,6-tetrahydro-2H-[1,2′]bipyridinyl-4-carbonyl)-pyrrolidin-3-yl]-ethyl-carbamic acid 4-fluoro-phenyl ester]	8.52

Source: US9346786B2, “Pyrrolidine compounds” (Hoffmann-La Roche Inc., priority 2009, dated 2016)
